These results are taken from patent US12240844B2 (Voronoi, Inc., priority 2019, dated 2025).

SMILES strings stand for the structures.

Format in all cases: biochemical
Assay [1] has as its target T1, human GST-DYRK1A (full length) (Homo sapiens, UniProt Q13627).
T1 construct: purified human GST-DYRK1A (full length, Thermo scientifics) enzyme; GST; purchased Thermo scientifics
In words: GST-DYRK1A enzyme inhibition, ADP-Glo kinase assay. As to conditions: read-out: DYRK1 IC50. An outline of the steps: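 ADP-Glo luminescence quantified kinase activity after a 1 h, 25° C reaction of 10 ng full-length GST-tagged human DYRK1A, substrate and 10 uM ATP in Tris-HCl buffer pH 7.4 with MgCl2, BSA and DTT. Triplicate IC50 values (nM) calculated relative to untreated solvent control.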

The target of a further assay is T2, human GST-CLK1 (129-end) (Homo sapiens, UniProt P49759).
T2 construct: purified human GST-CLK1 (129-end, Signalchem) enzyme; GST; purchased Signalchem
T2 sequence (P49759 129-484 limits assumed): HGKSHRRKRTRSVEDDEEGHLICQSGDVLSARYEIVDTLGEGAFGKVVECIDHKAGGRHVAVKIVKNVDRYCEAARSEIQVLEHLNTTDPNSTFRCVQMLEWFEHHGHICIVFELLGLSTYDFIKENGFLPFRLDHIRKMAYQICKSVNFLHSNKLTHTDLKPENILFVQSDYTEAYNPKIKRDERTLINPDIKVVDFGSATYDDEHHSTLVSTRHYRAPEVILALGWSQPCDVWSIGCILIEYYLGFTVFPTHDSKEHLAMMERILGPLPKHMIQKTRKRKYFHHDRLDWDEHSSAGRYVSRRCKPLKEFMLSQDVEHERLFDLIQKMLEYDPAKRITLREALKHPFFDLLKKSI
The experiment in a line: GST-CLK1 enzyme inhibition, ADP-Glo kinase assay. Particulars: ATP 10 uM. The method in brief: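 ADP formation was read by ADP-Glo luminescence after 1 h at 25° C with 3 ng human GST-CLK1 (129-end), substrate and 10 uM ATP in Tris pH 7.4 buffer containing MgCl2, BSA and DTT. Inhibition relative to untreated solvent control gave IC50 (nM), run in triplicate.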

The next assay concerns the target T3, TTK (Homo sapiens, UniProt P33981).
T3 sequence (P33981 1-857): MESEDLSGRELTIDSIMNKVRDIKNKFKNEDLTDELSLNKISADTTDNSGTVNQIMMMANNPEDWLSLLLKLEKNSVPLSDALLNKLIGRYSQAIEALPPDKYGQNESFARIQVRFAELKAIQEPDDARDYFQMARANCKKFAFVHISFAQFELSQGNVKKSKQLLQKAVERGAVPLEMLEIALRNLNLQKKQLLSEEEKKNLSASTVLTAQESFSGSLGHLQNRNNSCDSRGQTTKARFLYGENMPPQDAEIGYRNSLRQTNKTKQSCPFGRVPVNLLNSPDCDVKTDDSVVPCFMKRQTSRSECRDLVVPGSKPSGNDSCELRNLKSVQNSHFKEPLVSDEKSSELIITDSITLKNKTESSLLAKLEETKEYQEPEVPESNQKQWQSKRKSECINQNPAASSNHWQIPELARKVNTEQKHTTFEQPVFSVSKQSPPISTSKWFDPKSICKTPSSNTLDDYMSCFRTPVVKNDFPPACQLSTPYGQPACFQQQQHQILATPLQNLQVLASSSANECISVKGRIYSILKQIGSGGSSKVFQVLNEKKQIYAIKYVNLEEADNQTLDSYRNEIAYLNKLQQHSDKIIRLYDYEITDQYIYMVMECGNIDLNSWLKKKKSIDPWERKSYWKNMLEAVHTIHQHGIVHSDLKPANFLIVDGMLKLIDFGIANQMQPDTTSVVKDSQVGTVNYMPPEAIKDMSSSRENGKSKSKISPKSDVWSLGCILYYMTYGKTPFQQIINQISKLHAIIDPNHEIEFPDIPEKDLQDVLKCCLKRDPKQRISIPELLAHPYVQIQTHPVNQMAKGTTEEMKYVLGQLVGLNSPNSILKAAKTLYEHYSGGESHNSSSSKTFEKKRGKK
The experiment in a line: TTK enzyme inhibition, ADP-Glo kinase assay. Set-up: purchased Signalchem T20-10G. As to conditions: ATP 5 μM. The method in brief: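 Recombinant human TTK (7.5 ng) reacted with 5 μM ATP and MBP substrate (0.2 μg) for 4 h at 25° C in Tris-HCl pH 7.4, MgCl2, BSA, DTT buffer, compound at 0.000017–1 μM. ADP formation by ADP-Glo luminescence; IC50 (nM) relative to solvent control.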

For the compound `COCCNc1cc(Nc2ccc(S(=O)(=O)N3CCC(N4CCOCC4)CC3)c3c2OCCO3)nc2[nH]cc(C(F)(F)F)c12` [Example 97, N^4-(2-methoxyethyl)-N^6-(8-((4-morpholonopiperidin-1-yl)sulfonyl)-2,3-dihydrobenzo[b] [1,4]dioxin-5-yl)-3-(trifluoromethyl)-1H-pyrrolo[2,3-b]pyridine-4,6-diamine], the concentration for half-maximal inhibition (IC50) in assay [1] was 101 to 300 nM; on human GST-CLK1 (129-end), below 100 nM; on TTK it was 101 to 300 nM.
`COc1cc(S(=O)(=O)N2CCOCC2)ccc1Nc1cc(C2CC2)c2c(C#N)c[nH]c2n1` [Example 227, 4-cyclopropyl-6-((2-methoxy-4-(morpholinosulfonyl)phenyl)amino)-1H-pyrrolo[2,3-b]pyridine-3-carbonitrile]: the results for the IC50 (in assay [1]; at human GST-CLK1 (129-end); on TTK) were 301 to 1000 nM, 301 to 1000 nM and below 100 nM, respectively.
Consider `CCNc1cc(Nc2ccc(C(=O)N3CCC(N4C[C@H]5C[C@@H]4CO5)CC3)c3c2OCC3)nc2[nH]cc(C(F)(F)F)c12` [Example 244, (4-((1R,4R)-2-oxa-5-azabicyclo[2.2.1]heptan-5-yl)piperidin-1-yl)(7-((4-(ethylamino)-3-(trifluoromethyl)-1H-pyrrolo[2,3-b]pyridin-6-yl)amino)-2,3-dihydrobenzofuran-4-yl)methanone], for which the IC50 (in assay [1]; against human GST-CLK1 (129-end); against TTK) was below 100 nM throughout.
In the case of `O=C(c1ccc(Nc2cc(NC3CC3)c3c(C(F)(F)F)c[nH]c3n2)c2c1CCO2)N1CCC(N2CCOCC2)CC1` [Example 92, (7-((4-(cyclopropylamino)-3-(trifluoromethyl)-1H-pyrrolo[2,3-b]pyridin-6-yl)amino)-2,3-dihydrobenzofuran-4-yl)(4-morpholinopiperidin-1-yl)methanone], the IC50 (in assay [1]; at human GST-CLK1 (129-end); at TTK) was below 100 nM each time.
As for `CNc1cc(Nc2ccc(C(=O)N3CCC(N4CCOCC4)CC3)c3c2OCC3)nc2[nH]cc(C(F)(F)F)c12` [Example 234, (7-((4-(methylamino)-3-(trifluoromethyl)-1H-pyrrolo[2,3-b]pyridin-6-yl)amino)-2,3-dihydrobenzofuran-4-yl)(4-morpholinopiperidin-1-yl)methanone], the IC50 (in assay [1]; on human GST-CLK1 (129-end); on TTK) was below 100 nM each time.
On to `COc1cc(S(=O)(=O)N2CCOCC2)ccc1Nc1cc(C2CC2)c2c(C(F)(F)F)c[nH]c2n1` [Example 222, 4-cyclopropyl-N-(2-methoxy-4-(morpholinosulfonyl)phenyl)-3-(trifluoromethyl)-1H-pyrrolo[2,3-b]pyridin-6-amine], for which the values for the half-inhibitory concentration (IC50) at human GST-CLK1 (129-end) and against TTK were 301 to 1000 nM and below 100 nM, respectively.
For the compound `CCNc1cc(Nc2ccc(C(=O)N3CCN(C4COC4)CC3)c3c2OCC3)nc2[nH]cc(C(F)(F)F)c12` [Example 248, (7-((4-(ethylamino)-3-(trifluoromethyl)-1H-pyrrolo[2,3-b]pyridin-6-yl)amino)-2,3-dihydrobenzofuran-4-yl)(4-(oxetan-3-yl)piperazin-1-yl)methanone], the IC50 (in assay [1]; against human GST-CLK1 (129-end); on TTK) was below 100 nM each time.
Regarding `CCNc1cc(Nc2ccc(C(=O)N3CCN(C4COC4)CC3)c3c2OCCO3)nc2[nH]cc(C(F)(F)F)c12` [Example 173, (8-((4-(ethylamino)-3-(trifluoromethyl)-1H-pyrrolo[2,3-b]pyridin-6-yl)amino)-2,3-dihydrobenzo[b] [1,4]dioxin-5-yl)(4-(oxetan-3-yl)piperazin-1-yl)methanone], the 50% inhibitory concentration (IC50) (in assay [1]; against human GST-CLK1 (129-end); against TTK) was below 100 nM each time.
Regarding `CCNc1cc(Nc2ccc(C(=O)N3C[C@@H]4C[C@H]3CO4)c3c2OCCO3)nc2[nH]cc(C(F)(F)F)c12` [Example 44, ((1S,4S)-2-oxa-5-azabicyclo[2.2.1]heptan-5-yl)(8-((4-(ethylamino)-3-(trifluoromethyl)-1H-pyrrolo[2,3-b]pyridin-6-yl)amino)-2,3-dihydrobenzo[b] [1,4]dioxin-5-yl)methanone], the IC50 (in assay [1]; against human GST-CLK1 (129-end); against TTK) was below 100 nM each time.
Turning to `CNc1cc(Nc2ccc(P3(=O)CCN(C4CC4)CC3)cc2OC)nc2[nH]cc(C#N)c12` [Example 146, 6-((4-(1-cyclopropyl-4-oxido-1,4-azaphosphinan-4-yl)-2-methoxyphenyl)amino)-4-(methylamino)-1H-pyrrolo[2,3-b]pyridine-3-carbonitrile], the concentration for half-maximal inhibition (IC50) in assay [1] is 301 to 1000 nM; against human GST-CLK1 (129-end), 301 to 1000 nM; on TTK, below 100 nM.
Regarding `CCNc1cc(Nc2cc(F)c(S(=O)(=O)N3CCC(N4CCOCC4)CC3)cc2OC)nc2[nH]cc(C(F)(F)F)c12` [Example 266, N^4-ethyl-N^6-(5-fluoro-2-methoxy-4-((4-morpholinopiperidin-1-yl)sulfonyl)phenyl)-3-(trifluoromethyl)-1H-pyrrolo[2,3-b]pyridine-4,6-diamine], the IC50 (in assay [1]; against human GST-CLK1 (129-end); against TTK) was 301 to 1000 nM throughout.
For the compound `CNc1cc(Nc2ccc(P3(=O)CCN(C4CC4)CC3)cc2OC)nc2[nH]cc(C(F)(F)F)c12` [Example 205, 1-cyclopropyl-4-(3-methoxy-4-((4-(methylamino)-3-(trifluoromethyl)-1H-pyrrolo[2,3-b]pyridin-6-yl)amino)phenyl)-1,4-azaphosphinane 4-oxide], the concentration for half-maximal inhibition (IC50) (in assay [1]; against human GST-CLK1 (129-end); on TTK) was below 100 nM each time.
Take `COCCNc1cc(Nc2ccc(P3(=O)CCN(C4CC4)CC3)cc2OC)nc2[nH]cc(C#N)c12` [Example 148, 6-((4-(1-cyclopropyl-4-oxido-1,4-azaphosphinan-4-yl)-2-methoxyphenyl)amino)-4-((2-methoxyethyl)amino)-1H-pyrrolo[2,3-b]pyridine-3-carbonitrile]: the IC50 in assay [1] was 301 to 1000 nM; against human GST-CLK1 (129-end), 301 to 1000 nM; against TTK, below 100 nM.
With `CNc1cc(Nc2ccc(C(=O)N3CC[C@H](N4CCOCC4)C3)c3c2OCC3)nc2[nH]cc(C(F)(F)F)c12` [Example 217, (S)-(7-((4-(methylamino)-3-(trifluoromethyl)-1H-pyrrolo[2,3-b]pyridin-6-yl)amino)-2,3-dihydrobenzofuran-4-yl)(3-morpholinopyrrolidin-1-yl)methanone], the IC50 (in assay [1]; on human GST-CLK1 (129-end); on TTK) was below 100 nM in each case.
Take `O=C(c1ccc(Nc2cc(C3CC3)c3c(C(F)(F)F)c[nH]c3n2)c2c1OCCO2)N1CCC(N2CCOCC2)CC1` [Example 221, (8-((4-cyclopropyl-3-(trifluoromethyl)-1H-pyrrolo[2,3-b]pyridin-6-yl)amino)-2,3-dihydrobenzo [b] [1,4]dioxin-5-yl)(4-morpholinopiperidin-1-yl)methanone]: the IC50 against human GST-CLK1 (129-end) and against TTK was below 100 nM each time.
As for `O=C(c1ccc(Nc2cc(C3CC3)c3c(C(F)(F)F)c[nH]c3n2)c2c1CCO2)N1CCC(N2CCOCC2)CC1` [Example 93, (7-((4-cyclopropyl-3-(trifluoromethyl)-1H-pyrrolo[2,3-b]pyridin-6-yl)amino)-2,3-dihydrobenzofuran-4-yl)(4-morpholinopiperidin-1-yl)mthanone], the IC50 against human GST-CLK1 (129-end) was below 100 nM; against TTK, 301 to 1000 nM.
The like results for `N#Cc1c[nH]c2nc(Nc3ccc(C(=O)N4CCC(N5CCOCC5)CC4)c4c3OCCO4)cc(C3CC3)c12` [Example 226, 4-cyclopropyl-6-((8-(4-morpholinopiperidine-1-carbonyl)-2,3-dihydrobenzo[b] [1,4]dioxin-5-yl)amino)-1H-pyrrolo[2,3-b]pyridine-3-carbonitrile] were, in that order, below 100 nM and below 100 nM.
